The values below come from patent publication US11401270B2, “Alcoxyamino derivatives for treating pain and pain related conditions” (ESTEVE PHARMACEUTICALS, S.A., priority 2017, dated 2022).

Human α2δ-1 subunit of Cav2.2 calcium channel, sequence (P54289 25-1103): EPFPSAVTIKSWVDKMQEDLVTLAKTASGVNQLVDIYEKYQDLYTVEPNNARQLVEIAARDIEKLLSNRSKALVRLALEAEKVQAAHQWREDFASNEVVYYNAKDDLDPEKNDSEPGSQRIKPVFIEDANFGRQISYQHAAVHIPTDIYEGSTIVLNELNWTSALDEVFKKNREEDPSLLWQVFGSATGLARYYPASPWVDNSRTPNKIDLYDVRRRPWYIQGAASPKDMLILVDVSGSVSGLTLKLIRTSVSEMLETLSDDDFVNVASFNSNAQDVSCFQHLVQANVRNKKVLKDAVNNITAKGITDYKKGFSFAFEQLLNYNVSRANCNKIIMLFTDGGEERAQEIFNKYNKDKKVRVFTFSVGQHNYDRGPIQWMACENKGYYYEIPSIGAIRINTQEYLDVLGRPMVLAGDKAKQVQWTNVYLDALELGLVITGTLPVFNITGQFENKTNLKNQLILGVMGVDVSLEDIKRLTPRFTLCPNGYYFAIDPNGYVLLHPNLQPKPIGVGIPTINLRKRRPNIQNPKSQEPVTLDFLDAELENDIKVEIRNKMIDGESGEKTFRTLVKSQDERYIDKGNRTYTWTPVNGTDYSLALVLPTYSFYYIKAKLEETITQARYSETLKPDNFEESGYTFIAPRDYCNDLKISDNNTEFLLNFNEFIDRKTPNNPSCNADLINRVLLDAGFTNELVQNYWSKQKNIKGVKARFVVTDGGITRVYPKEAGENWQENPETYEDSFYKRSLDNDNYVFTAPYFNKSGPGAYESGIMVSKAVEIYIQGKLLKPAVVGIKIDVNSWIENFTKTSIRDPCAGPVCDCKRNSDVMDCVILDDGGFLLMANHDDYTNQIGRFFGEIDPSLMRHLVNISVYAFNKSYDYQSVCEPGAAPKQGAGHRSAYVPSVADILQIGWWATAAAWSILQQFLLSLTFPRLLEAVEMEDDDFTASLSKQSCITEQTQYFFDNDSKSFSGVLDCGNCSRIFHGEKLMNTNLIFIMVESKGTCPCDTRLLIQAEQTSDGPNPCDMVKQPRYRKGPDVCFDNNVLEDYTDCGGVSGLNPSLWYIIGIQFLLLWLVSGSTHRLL

The test has as its target Human α2δ-1 subunit of Cav2.2 calcium channel (Homo sapiens (Human), UniProt P54289). The test can be described thus: Binding Assay to Human α2δ-1 Subunit of Cav2.2 Calcium Channel. As to conditions: Table 1; human α2δ-1 enriched membranes, 15 nM [3H]-Gabapentin; read-out: Ki(nM) alpha2delta Hum. The method, then: Binding Assay to Human α2δ-1 Subunit of Cav2.2 Calcium Channel.
NSB (non specific binding) was measured by adding 10 μM pregabalin. The binding of the test compound was measured in five different concentrations. After 60 min incubation at 27° C., binding reaction was terminated by filtering through Multiscreen GF/C (Millipore) presoaked in 0.5% polyethyleneimine in Vacuum Manifold Station, followed by 3 washes with ice-cold filtration buffer containing 50 mM Tris-HCl, pH 7.4.
Filter plates were dried at 60° C. for 1 hour and 30 μl of scintillation cocktail were added to each well before radioactivity reading.
As to `CCNC[C@H]1CC(=O)N(c2cccc(O[C@@H](CCNC)c3ccccc3)c2)CCN1C` [Example 22, (R)-7-((ethylamino)methyl)-1-methyl-4-(3-((S)-3-(methylamino)-1-phenylpropoxy)phenyl)-1,4-diazepan-5-one], the Ki is > 3000 nM.

Turning to `CCNC[C@@H]1CC(=O)N(c2cccc(O[C@@H](CCNC)c3ccccc3)c2)CCN1C` [Example 23, (S)-7-((ethylamino)methyl)-1-methyl-4-(3-((S)-3-(methylamino)-1-phenylpropoxy)phenyl)-1,4-diazepan-5-one], the Ki was > 3000 nM.

Regarding `CCNC[C@H]1CN(C)CCN(c2cccc(O[C@@H](CCNC)c3ccccc3)c2)C1=O` [Example 24, (S)-6-((ethylamino)methyl)-1-methyl-4-(3-((S)-3-(methylamino)-1-phenylpropoxy)phenyl)-1,4-diazepan-5-one], the Ki was > 3000 nM.

With `CCNC[C@@H]1CN(C)CCN(c2cccc(O[C@@H](CCNC)c3ccccc3)c2)C1=O` [Example 25, (R)-6-((ethylamino)methyl)-1-methyl-4-(3-((S)-3-(methylamino)-1-phenylpropoxy)phenyl)-1,4-diazepan-5-one], the Ki was > 3000 nM.

With `CNCCC(OCc1cccc(N2CCN(C)c3cccnc3C2=O)c1)c1ccccc1` (stereo not drawn) [Example 26, 1-Methyl-4-(3-((3-(methylamino)-1-phenylpropoxy)methyl)phenyl)-1,2,3,4-tetrahydro-5H-pyrido[3,2-e][1,4]diazepin-5-one], the Ki was in the range of 500 to 3000 nM.

With `CNCCC(OCc1cccc(N2CCN(C)c3cc(F)cnc3C2=O)c1)c1ccccc1` (stereo not drawn) [Example 27, 8-Fluoro-1-methyl-4-(3-((3-(methylamino)-1-phenylpropoxy)methyl)phenyl)-1,2,3,4-tetrahydro-5H-pyrido[3,2-e][1,4]diazepin-5-one], the Ki was 100 to 500 nM.

As to `CNCCC(OCc1cccc(N2CCN(C)c3cnccc3C2=O)c1)c1ccccc1` (stereo not drawn) [Example 28, 1-Methyl-4-(3-((3-(methylamino)-1-phenylpropoxy)methyl)phenyl)-1,2,3,4-tetrahydro-5H-pyrido[3,4-e][1,4]diazepin-5-one], the Ki is 500 to 3000 nM.

`CNCC[C@H](OCc1cccc(N2C[C@@H]3CCCN3c3ccccc3C2=O)c1)c1ccccc1` [Example 30, (S)-5-(3-(((S)-3-(methylamino)-1-phenylpropoxy)methyl)phenyl)-1,2,3,3a,4,5-hexahydro-6H-benzo[f]pyrrolo[1,2-a][1,4]diazepin-6-one]: the Ki was > 3000 nM.

`CNCC[C@@H](OCc1cccc(N2C[C@@H]3CCCN3c3ccccc3C2=O)c1)c1ccccc1` [Example 31, (S)-5-(3-(((R)-3-(methylamino)-1-phenylpropoxy)methyl)phenyl)-1.2,3,3a,4,5-hexahydro-6H-benzo[f]pyrrolo[1,2-a][1,4]diazepin-6-one]: the Ki lay within 500 to 3000 nM.

As to `CNCCC(Oc1cccc(N2CCN(C)CCC2=O)c1)c1ccccc1` (stereo not drawn) [Example 32, 1-Methyl-4-(3-(3-(methylamino)-1-phenylpropoxy)phenyl)-1,4-diazepan-5-one], the Ki is > 3000 nM.

With `CNCCC(Oc1cccc(N2CCCCCC2=O)c1)c1ccccc1` (stereo not drawn) [Example 33, 1-(3-(3-(Methylamino)-1-phenylpropoxy)phenyl)azapan-2-one], the Ki was > 3000 nM.

Turning to `CNCCC(OCc1cccc(N2CCCCCC2=O)c1)c1ccccc1` (stereo not drawn) [Example 35, 1-(3-((3-(Methylamino)-1-phenylpropoxy)methyl)phenyl)azepan-2-one], the Ki was in the range of 500 to 3000 nM.

`CNCCC(OCc1cccc(N2CCCN(C)CC2=O)c1)c1ccccc1` (stereo not drawn) [Example 36, 4-Methyl-1-(3-((3-(methylamino)-1-phenylpropoxy)methyl)phenyl)-1,4-diazepan-2-one]: the Ki was 500 to 3000 nM.

On to `CNCCC(OCc1cccc(N2CCN(C)c3ccccc3C2=O)c1)c1ccccc1` (stereo not drawn) [Example 38, 1-Methyl-4-(3-((3-(methylamino)-1-phenylpropoxy)methyl)phenyl)-1,2,3,4-tetrahydro-5H-benzo[e][1,4]diazepin-5-one], for which the Ki fell in the range of 500 to 3000 nM.

Take `CNCCC(OCc1cccc(N2CCN(C)c3ccccc3C2=O)c1)c1ccccc1F` (stereo not drawn) [Example 39, 4-(3-((1-(2-Fluorophenyl)-3-(methylamino)propoxy)methyl)phenyl)-1-methyl-1,2,3,4-tetrahydro-5H-benzo[e][1,4]diazepin-5-one]: the Ki lay in the range of 100 to 500 nM.

`CNCCC(OCc1cccc(N2CCN(C)c3ccccc3C2=O)c1)c1cccc(F)c1` (stereo not drawn) [Example 40, 4-(3-((1-(3-Fluorophenyl)-3-(methylamino)propoxy)methyl)phenyl)-1-methyl-1,2,3,4-tetrahydro-5H-benzo[e][1,4]diazepin-5-one]: the Ki was in the range of 500 to 3000 nM.

Consider `CNCC[C@@H](OCc1cccc(N2CCN(C)c3ccccc3C2=O)c1)c1cccc(F)c1` [Example 41, (R)-4-(3-((1-(3-fluorophenyl)-3-(methylamino)propoxy)methyl)phenyl)-1-methyl-1,2,3,4-tetrahydro-5H-benzo[e][1,4]diazepin-5-one], for which the Ki was > 3000 nM.

`CNCC[C@H](OCc1cccc(N2CCN(C)c3ccccc3C2=O)c1)c1cccc(F)c1` [Example 42, (S)-4-(3-((1-(3-fluorophenyl)-3-(methylamino)propoxy)methyl)phenyl)methyl-1 2,3,4-tetrahydro-5H-benzo[e][1,4]diazepin-5-one]: the Ki lay within 500 to 3000 nM.

For `CCNCCC(OCc1cccc(N2CCN(C)c3ccccc3C2=O)c1)c1ccccc1` (stereo not drawn) [Example 43, 4-(3-((3-(Ethylamino)-1-phenylpropoxy)methyl)phenyl)-1-methyl-1,2,3,4-tetrahydro-5H-benzo[e][1,4]diazepin-5-one], the Ki was in the range of 100 to 500 nM.

For `CN1CCN(c2cccc(COC(CCNCCF)c3ccccc3)c2)C(=O)c2ccccc21` (stereo not drawn) [Example 44, 4-(3-((3-((2-Fluoroethyl)amino)-1-phenylpropoxy)methyl)phenyl)-1-methyl-1,2,3,4-tetrahydro-5H-benzo[e][1,4]diazepin-5-one], the Ki fell in the range of 500 to 3000 nM.

For the compound `CNCCC(OCc1cccc(N2CCN(C)c3ncccc3C2=O)c1)c1ccccc1` (stereo not drawn) [Example 45, 1-Methyl-4-(3-((3-(methylamino)-1-phenylpropoxy)methyl)phenyl)-1,2,3,4-tetrahydro-5H-pyrido[2,3-e][1,4]diazepin-5-one], the Ki is 500 to 3000 nM.

`CNCCC(OCc1ccc(N2CCN(C)c3ccccc3C2=O)cc1)c1ccccc1` (stereo not drawn) [Example 46, 1-Methyl-4-(4-((3-(methylamino)-1-phenylpropoxy)methyl)phenyl)-1,2,3,4-tetrahydro-5H-benzo[e][1,4]diazepin-5-one]: the Ki is > 3000 nM.

As for `CNCC[C@@H](OCc1cccc(N2CCN(C)c3ccccc3C2=O)c1)c1ccccc1` [Example 47, (R)-1-methyl-4-(3-((3-(methylamino)-1-phenylpropoxy)methyl)phenyl)-1,2,3,4-tetrahydro-5H-benzo[e][1,4]diazepin-5-one], the Ki was in the range of 500 to 3000 nM.

For `CNCCC(OCc1cccc(N2CCN(C)c3nc(C)ccc3C2=O)c1)c1ccccc1` (stereo not drawn) [Example 48, 1,8-Dimethyl-4-(3-((3-(methylamino)-1-phenylpropoxy)methyl)phenyl)-1,2,3,4-tetrahydro-5H-pyrido[2,3-e][1,4]diazepin-5-one], the Ki was in the range of 500 to 3000 nM.

For `CNCC[C@H](OCc1cccc(N2CCN(C)c3ccccc3C2=O)c1)c1ccccc1` [Example 49], the Ki was > 3000 nM.

With `CNCCC(Oc1cccc(N2CC(=O)N(C)c3ccccc3C2=O)c1)c1cccs1` (stereo not drawn) [Example 51, 1-Methyl-4-(3-(3-(methylamino)-1-(thiophen-2-yl)propoxy)phenyl)-3,4-dihydro-1H-benzo[e][1,4]diazepine-2,5-dione], the Ki is > 3000 nM.

Consider `CNCCC(Oc1cccc(N2CCCN(C)CC2=O)c1)c1cccs1` (stereo not drawn) [Example 52, 4-Methyl-1-(3-(3-(methylamino)-1-(thiophen-2-yl)procoxy)phenyl)-1,4-diazepan-2-one], for which the Ki was > 3000 nM.

Consider `CNCCC(Oc1cccc(N2CCN(C)c3ccccc3C2=O)c1)c1cccs1` (stereo not drawn) [Example 53, 1-Methyl-4-(3-(3-(methylamino)-1-(thiophen-2-yl)propoxy)phenyl)-1,2,3,4-tetrahydro-5H-benzo[e][1,4]diazepin-5-one], for which the Ki lay within 500 to 3000 nM.

Consider `CNCCC(Oc1cccc(N2CCN(C)c3cccnc3C2=O)c1)c1cccs1` (stereo not drawn) [Example 57, 1-Methyl-4-(3-(3-(methylamino)-1-(thiophen-2-yl)propoxy)phenyl)-1,2,3,4-tetrahydro-5H-pyrido[3,2-e][1,4]diazepin-5-one], for which the Ki lay within 500 to 3000 nM.

As for `CNCCC(Oc1cccc(N2CCNCCC2=O)c1)c1cccs1` (stereo not drawn) [Example 59, 4-(3-(3-(Methylamino)-1-(thiophen-2-yl)propoxy)phenyl)-1,4-diazepan-5-one], the Ki fell in the range of 500 to 3000 nM.

Consider `CCNCC(=O)N1CCC(=O)N(c2cccc(OC(CCNC)c3cccs3)c2)CC1` (stereo not drawn) [Example 68, 1-(Ethylglycyl)-4-(3-(3-(methylamino)-1-(thiophen-2-yl)propoxy)phenyl)-1,4-diazepan-5-one], for which the Ki is 500 to 3000 nM.

Consider `CNCCC(Oc1cccc(N2CCN(C)c3cnccc3C2=O)c1)c1cccs1` (stereo not drawn) [Example 73, 1-Methyl-4-(3-(3-(methylamino)-1-(thiophen-2-yl)propoxy)phenyl)-1.2,3,4-tetrahydro-5H-pyrido[3,4-e][1,4]diazepin-5-one], for which the Ki fell in the range of 100 to 500 nM.

For `CNCCC(Oc1cccc(N2CCN(C)c3cc(F)cnc3C2=O)c1)c1cccs1` (stereo not drawn) [Example 74, 8-Fluoro-1-methyl-4-(3-(3-(methylamino)-1-(thiophen-2-yl)propoxy)phenyl)-1,2,3,4-tetrahydro-5H-pyrido[3,2-e][1,4]diazepin-5-one], the Ki is > 3000 nM.
